According to paper PMC6368403, “Identification of a bilirubin receptor that may mediate a component of cholestatic itch” (eLife, 2019):
Where “and” joins values, the source holds several entries; their conditions need not be identical. Equal entries are not always repeated.

Key:
[1] = test system: murine peritoneal mast cells; test: Mouse peritoneal mast cell histamine release assay; format: cell-based; settings: 100 µM bilirubin
Description: Adult male mice 8–12 weeks of age were sacrificed through CO2 inhalation. A total of 25 mL of mast cell dissociation media (MCDM; HBSS with 3% fetal bovine serum and 10 mM HEPES, pH 7.2) was chilled on ice before being used to make two sequential peritoneal lavages. Lavages were combined and spun at 200 g. […] Mast cells were recovered in the pellet. Mast cells were re-suspended in DMEM with 10% fetal bovine serum (FBS) and 25 ng/mL recombinant mouse stem cell factor (Sigma). Mast cells were purified as described and allowed to recover for 2 hr at 37°C. Cells were then seeded in 96-well plates coated with […] fibronectin at 300 cells/well. Plates were incubated at 37°C for 45 min before assay. For the assay, all compounds tested were diluted in CIB. Five minutes after compound addition, supernatant was aspirated and frozen at −80°C until histamine levels were determined with an HTRF histamine assay kit (Cisbio Assays) according to the manufacturer’s instructions.

[2] = target: T1, MRGPRC11 (Mus musculus, UniProt Q8CIP3); test: Microscale thermophoresis binding to MRGPRC11; settings: for microscale thermophoresis response (binding isotherm), mean: mean of n=3, Fig 2-O
T1 construct: expressed in transfected cells
T1 sequence (Q8CIP3 1-322): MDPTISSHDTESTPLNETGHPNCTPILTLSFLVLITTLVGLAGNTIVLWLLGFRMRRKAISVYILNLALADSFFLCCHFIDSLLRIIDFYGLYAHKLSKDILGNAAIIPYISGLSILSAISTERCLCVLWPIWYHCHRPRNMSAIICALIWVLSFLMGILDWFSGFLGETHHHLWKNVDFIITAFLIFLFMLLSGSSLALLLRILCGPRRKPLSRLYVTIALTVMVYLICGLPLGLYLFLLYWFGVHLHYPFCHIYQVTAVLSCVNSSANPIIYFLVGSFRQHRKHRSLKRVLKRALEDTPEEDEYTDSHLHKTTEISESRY
Description: Binding isotherms for MRGPRA1, MRGPRX4, and MRGRPC11 towards various ligands were determined by microscale thermophoresis with the NanoTemper monolith NT.115 instrument ([Duhr and Braun, 2006]). Ligands were pre-incubated with 10 µM of the GFP-tagged receptor of interest for 5 min at room temperature in binding buffer (20 mM Tris and 150 mM NaCl at pH 8.8). Receptors were crudely purified as a membrane fraction from cells stably expressing the receptor ([Vasavda et al., 2017]). Haem metabolites were freshly dissolved in 0.1 M NaOH in dim light and then diluted into assay buffer. Lyophilized BAM8-22 was dissolved in binding buffer. The pH of each ligand was evaluated prior to incubation with a receptor. Samples were loaded into NT.115 Hydrophobic-Treated Capillaries from NanoTemper. Microscale thermophoretic experiments were executed using 20% LED power and 15% MST power. KDs were calculated using the law of mass action with data from three independent experiments. Binding between bilirubin and receptors was evaluated purely thermophoretically, whereas binding between BAM8-22 and MRGPRC11 was evaluated by T-Jump. Samples with dramatic deviations in initial fluorescence were excluded.

[3] = target: T1, MRGPRC11; test: [35S]GTPγS binding to MRGPRC11 membrane complexes; format: biochemical; settings: 50 μM bilirubin
Description: MRGPR activation was determined by measuring binding of a radiolabelled and non-hydrolyzable form of GTP, [^35S]guanosine-5’-(γ-thio)triphosphate ([^35S]GTPγS) as previously described ([Vasavda et al., 2017]). Briefly, 10 µg of crude membrane fractions were diluted into 175 µL assay buffer (50 mM HEPES, 5 mM MgCl2, 100 mM NaCl, 1 mM EDTA, 0.1% […]) supplemented with 10 µM GDP and incubated at room temperature for 5 min. Membranes were then incubated an additional 1 min in a final volume of 199 μL assay buffer supplemented with 50 μM bilirubin. Samples were then brought to 200 μL with the addition of 10 nM [^35S]GTPγS. Samples were incubated for 2 hr at 4°C with gentle agitation. The experiment was terminated by rapid filtration onto GF/B filters and washed three times with wash buffer (50 mM Tris-HCl, 5 mM MgCl2, and 50 mM NaCl at pH 7.4). Filters were then immersed in scintillation cocktail and counted. Nonspecific binding was determined by competition with 10 μM unlabelled GTPγS. GTPγS binding assays were performed as two independent experiments, in triplicate.

C=CC1=C(C)/C(=C/c2[nH]c(Cc3[nH]c(/C=C4\NC(=O)C(C)=C4C=C)c(C)c3CCC(=O)O)c(CCC(=O)O)c2C)NC1=O [bilirubin, bilirubin IXα]
Mast cell histamine release [1]: did not elicit a calcium response or induce appreciable histamine release | microscale thermophoresis response (binding isotherm), mean ([2]; [Ligand] 3.05e-8 M): 2.385e-5 | microscale thermophoresis response (binding isotherm), mean ([2]; [Ligand] 6.1e-8 M): 4.712e-5 | microscale thermophoresis response (binding isotherm), mean ([2]; [Ligand] 1.221e-7 M): 4.182e-5 | microscale thermophoresis response (binding isotherm), mean ([2]; [Ligand] 2.441e-7 M): 4.08e-5 | microscale thermophoresis response (binding isotherm), mean ([2]; [Ligand] 4.883e-7 M): 5.536e-5 | microscale thermophoresis response (binding isotherm), mean ([2]; [Ligand] 9.766e-7 M): 1.928e-5 | microscale thermophoresis response (binding isotherm), mean ([2]; [Ligand] 1.9531e-6 M): -5.329e-6 | microscale thermophoresis response (binding isotherm), mean ([2]; [Ligand] 3.9063e-6 M): -1.57e-5 | microscale thermophoresis response (binding isotherm), mean ([2]; [Ligand] 7.8125e-6 M): -3.808e-5 | microscale thermophoresis response (binding isotherm), mean ([2]; [Ligand] 1.5625e-5 M): -4.952e-5 | microscale thermophoresis response (binding isotherm), mean ([2]; [Ligand] 3.125e-5 M): -4.222e-5 | microscale thermophoresis response (binding isotherm), mean ([2]; [Ligand] 6.25e-5 M): 5.5228e-6 | microscale thermophoresis response (binding isotherm), mean ([2]; [Ligand] 0.000125 M): 4.793e-5 | microscale thermophoresis response (binding isotherm), mean ([2]; [Ligand] 0.00025 M): 9.26e-5 | microscale thermophoresis response (binding isotherm), mean ([2]; [Ligand] 0.0005 M): 0.0002843 | Affinity for MRGPRC11 ([2]; microscale thermophoresis): little to no affinity | GTP binding to MRGPRC11 membrane complexes [3]: not to MRGPRC11 | [35S]GTPγS binding ([3]; MRGPRC11 membrane complexes (Fig 2K)): 75 and 84 and 78
